Assay results reported in ChEMBL document CHEMBL3137667, “[Drug-induced liver injury; fourteenth updated edition of the bibliographic database of liver injuries and related drugs]” (Gastroenterol Clin Biol, 2004).

How the values were obtained:
[1] = human
[2] = human, serum, 4383 h
[3] = Times to onset, minimal and maximal, observed in the indexed observations. [column 'DELAI' in source]; details: human
[4] = human; remark: listed apart in the source
[5] = human; remark: listed apart in the source
[6] = human; remark: listed apart in the source
[7] = human; remark: listed apart in the source
[8] = human; remark: listed apart in the source
[9] = Highest frequency of moderate liver toxicity observed during clinical trials, expressed as a percentage. [column '% BIOL' in source]; details: human
[10] = human, serum
[11] = Proposed mechanism(s) of liver damage. [column 'MEC' in source]; details: human
[12] = human; remark: listed apart in the source
[13] = human; remark: listed apart in the source
[14] = human; remark: listed apart in the source
[15] = Highest frequency of acute liver toxicity observed during clinical trials, expressed as a percentage. [column '% AIGUE' in source]; details: human
[16] = human, serum; remark: listed apart in the source
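For Hepatotoxicity (association with vascular disease) in this document: count of indexed literature references reporting vascular liver injury in humans, e.g. peliosis hepatitis, hepatic veno-occlusive disease or Budd-Chiari syndrome.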
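For Hepatotoxicity (benign tumour) in this document: value is a count of indexed literature references citing a benign tumour confirmed by histopathology.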
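For Hepatotoxicity (choleostasis) in this document: human cholestatic liver injury, shown by histopathology or by peak ALT or AST elevation over alkaline phosphatase ratio below 2, value counts indexed literature reports.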
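For Hepatotoxicity (chronic liver disease) in this document: chronic liver injury confirmed by histopathology or persistently raised serum aminotransferase activity beyond 6 months, value given as the count of indexed literature references.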
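For Hepatotoxicity (cirrhosis) in this document: value is a count of indexed literature references reporting cirrhosis confirmed by histopathology.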
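For Hepatotoxicity (cytolytic) in this document: human cytolytic liver injury, shown by histopathology or by a ratio above 5 of peak ALT or AST elevation to alkaline phosphatase elevation, value counts indexed references.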
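For Hepatotoxicity (granulomatous hepatitis) in this document: value is a count of indexed literature references reporting granulomatous liver disease confirmed by histopathology.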
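For Hepatotoxicity (malignant tumour) in this document: malignant tumour confirmed by histopathology, value gives the count of indexed literature references reporting it.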
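For Hepatotoxicity (severe hepatitis) in this document: human clinical data: severe hepatitis, meaning potentially life-threatening liver failure or clinically observed cases, the value counts how many indexed literature references report it.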
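For Hepatotoxicity (steatosis) in this document: steatosis confirmed by histopathology, value is the count of indexed references.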

| Compound | Hepatotoxicity (severe hepatitis) [1] | Hepatotoxicity (chronic liver disease) [2] | Hepatotoxicity (time to onset) [3] | Hepatotoxicity (granulomatous hepatitis) [4] | Hepatotoxicity (malignant tumour) [5] | Hepatotoxicity (cirrhosis) [6] | Hepatotoxicity (benign tumour) [7] | Hepatotoxicity (cytolytic) [8] | Hepatotoxicity (moderate) [9] | Hepatotoxicity (moderate) [10] | Hepatotoxicity (mechanism) [11] | Hepatotoxicity (association with vascular disease) [12] | Hepatotoxicity (steatosis) [13] | Hepatotoxicity (choleostasis) [14] | Hepatotoxicity (acute) [15] | Hepatotoxicity (severe hepatitis) ([1]; Liver) | Hepatotoxicity (moderate) ([9]; Liver) | Hepatotoxicity (acute) [16] |
| --- | --- | --- | --- | --- | --- | --- | --- | --- | --- | --- | --- | --- | --- | --- | --- | --- | --- | --- |
| CC(C)(O)c1ccccc1CC[C@@H](SCC1(CC(=O)O)CC1)c1cccc(/C=C/c2ccc3ccc(Cl)cc3n2)c1 [MONTELUKAST] | 0 | 0 | 3 days - 2 years | 0 | 0 | 0 | 0 | 2 | 13.9% | 3 | Allergic | 0 | 0 | 2 | – | – | – | – |
| CCn1cc(C(=O)O)c(=O)c2ccc(C)nc21 [NALIDIXIC ACID] | 0 | 0 | 2 weeks | 0 | 0 | 0 | 0 | 1 | 0% | 2 | Allergic | 0 | 0 | 2 | 0% | – | – | – |
| COc1c(N2C[C@@H]3CCCN[C@@H]3C2)c(F)cc2c(=O)c(C(=O)O)cn(C3CC3)c12 [MOXIFLOXACIN] | – | 0 | 26 days | 0 | 0 | 0 | 0 | 0 | – | 3 | Dose-dependant | 0 | 0 | 1 | – | 0 | 6.9% | – |
| O=C[C@H](O)[C@@H](O)[C@H](O)[C@H](O)CO[C@H]1O[C@H](CO[C@H]2O[C@H](CO)[C@@H](O)[C@H](O)[C@H]2O)[C@@H](O)[C@H](O)[C@H]1O [DEXTRAN] | 0 | 0 | – | 0 | 0 | 0 | 0 | 0 | 43.7% | 2 | Dose-dependant | 0 | 0 | 0 | 0% | – | – | 0 |
| O=C1CN(/N=C/c2ccc([N+](=O)[O-])o2)C(=O)N1CO [NIFURTOINOL] | 0 | 2 | – | 0 | 0 | 0 | 0 | 0 | 0% | 0 | Allergic | 0 | 0 | 0 | 0% | – | – | 0 |
| O=C(Cn1c(=O)sc2ccc(Cl)cc21)N1CCN(CCO)CC1 [TIARAMIDE] | 0 | 0 | – | 0 | 0 | 0 | 0 | 1 | 0% | 0 | Allergic | 0 | 0 | 1 | 0% | – | – | 1 |
| CC(Cc1ccccc1)NCCC(c1ccccc1)c1ccccc1 (stereo not drawn) [PRENYLAMINE] | 0 | 0 | – | 0 | 0 | 0 | 0 | 0 | 7.7% | 1 | Dose-dependant | 0 | 0 | 0 | 0% | – | – | 0 |
| O=C(NO)c1ccc(O)c(O)c1 | 0 | 0 | – | 0 | 0 | 0 | 0 | 0 | 0% | 1 | Dose-dependant | 0 | 0 | 0 | 0% | – | – | 1 |
| Nc1nc2[nH]cc(CCc3ccc(C(=O)N[C@@H](CCC(=O)O)C(=O)O)cc3)c2c(=O)[nH]1 [PEMETREXED] | 0 | 0 | – | 0 | 0 | 0 | 0 | 0 | 100% | 1 | Dose-dependant | 0 | 0 | 0 | 0% | – | – | 0 |
| CCN(CC)CC[n+]1ccc2c(C)c3[nH]c4ccc(O)cc4c3c(C)c2c1.[Cl-] [DATELLIPTIUM CHLORIDE] | 0 | 0 | – | 0 | 0 | 0 | 0 | 2 | 66.7% | 2 | Dose-dependant | 0 | 0 | 0 | 7.1% | – | – | 2 |
| COc1ccccc1Oc1c(NS(=O)(=O)c2ccc(C(C)(C)C)cc2)nc(-c2ncccn2)nc1OCCO [BOSENTAN] | 0 | 0 | – | 0 | 0 | 0 | 0 | 4 | 15% | 12 | Dose-dependant | 0 | 0 | 1 | 5.3% | – | – | 5 |
| CCCCCCCCCCCCCCCCSCC(COC)COP(=O)([O-])OCC[N+](C)(C)C (stereo not drawn) [ILMOFOSINE] | 0 | 0 | – | 0 | 0 | 0 | 0 | 0 | 71.4% | 5 | Dose-dependant | 0 | 0 | 0 | 0% | – | – | 0 |
| INTERLEUKIN 6 | 0 | 0 | – | 0 | 0 | 0 | 0 | 0 | 55% | 9 | Dose-dependant | 0 | 0 | 1 | 0% | – | – | 2 |
| COc1ccc(OC)c(Cc2cnc3nc(N)nc(N)c3c2C)c1 [PIRITREXIM] | 0 | 0 | – | 0 | 0 | 0 | 0 | 0 | 12.1% | 7 | Dose-dependant | 0 | 0 | 0 | 0% | – | – | 0 |
